Source: patent publication US8507509B2, “Saturated and insaturated bi- or tricyclic aryloxyacetamine derivatives and their use as fungicides” (Syngenta Crop Protection LLC, priority 2007, dated 2013)
Where two headings read alike, the source gives them in different places.

How the values were obtained:
Plasmopara viticola = Plasmopara viticola (downy mildew of grapevine), grapevine leaf disk assay, preventive; type: in vivo; conditions: foliar, 168 h, read-out: control of fungal infection, Plasmopara viticola
Pythium ultimum = Pythium ultimum (Damping off), liquid culture growth inhibition in potato dextrose broth; type: cell-based; conditions: Globisporangium ultimum, read-out: control of fungal infection, Pythium ultimum
Fusarium culmorum = Fusarium culmorum (root rot), liquid culture growth inhibition in nutrient broth; type: cell-based; conditions: PDB broth, 24 C, inhibition of growth determined photometrically after 48 hrs, read-out: control of fungal infection, Fusarium culmorum
Method: Mycelia fragments or conidia suspensions of a fungus, prepared either freshly from liquid cultures of the fungus or from cryogenic storage, are directly mixed into nutrient broth. DMSO solutions of the test compound (max. 10 mg/ml) is diluted with 0.025% Tween20 by factor 50 and 10 μl of this solution is pipetted into a microtiter plate (96-well format) and the nutrient broth containing the fungal spores/mycelia fragments is then added to give an end concentration of the tested compound. The test plates are incubated at 24° C. and 96% rH in the dark. The inhibition of fungal growth is determined photometrically after 2-6 days and antifungal activity is calculated.
Fusarium culmorum (root rot): Conidia of the fungus from cryogenic storage were directly mixed into nutrient broth (PDB potato dextrose broth). After placing a (DMSO) solution of the test compounds into a microtiter plate (96-well format) the nutrient broth containing the fungal spores was added. The test plates were incubated at 24 C and the inhibition of growth was determined photometrically after 48 hrs.

Botrytis cinerea = Botrytis cinerea (grey mould), bean leaf disk assay, preventive; type: in vivo; conditions: foliar, 96 h, read-out: control of fungal infection, Botrytis cinerea
[1] = test system: Puccinia recondita f.sp. tritici; assay: Puccinia recondita f.sp. tritici (wheat brown rust), wheat leaf segment assay, preventive; type: in vivo; conditions: foliar, 216 h, read-out: control of fungal infection, Puccinia recondite f.sp. tritici
Septoria nodorum = Septoria nodorum (wheat glume blotch), wheat leaf segment assay, preventive; type: in vivo; conditions: Parastagonospora nodorum, foliar, 96 h, read-out: control of fungal infection, Septoria nodorum
[2] = test system: Erysiphe graminis f.sp. tritici; assay: Erysiphe graminis f.sp. tritici (wheat powdery mildew), wheat leaf segment assay, preventive; type: in vivo; conditions: Blumeria graminis, foliar, 96 h, read-out: control of fungal infection, Etysiphe graminis f.sp. tritici
Phytophthora infestans = assay: whole plant or invertebrate; type: in vivo; conditions: in Solanum lycopersicum, foliar, 96 h, read-out: control of fungal infection, Phytophthora infestans
Septoria tritici = Septoria tritici (leaf blotch), liquid culture growth inhibition in nutrient broth; type: cell-based; conditions: Zymoseptoria tritici, read-out: control of fungal infection, Septoria tritici
[3] = 20 ppm, potato dextrose broth, 24° C., inhibition of growth determined photometrically after 48 hours
[4] = 200 ppm, bean leaf disks, assessed four days after inoculation
[5] = 200 ppm, wheat leaf segments, assessed nine days after inoculation
[6] = 200 ppm, wheat leaf segments, assessed four days after inoculation
[7] = 200 ppm, PDB broth, 24 C, inhibition of growth determined photometrically after 72 hrs
[8] = 200 ppm, grapevine leaf disks, assessed seven days after inoculation

C#Cc1cnc2ccc(OC(OC)C(=O)NC(C)(C)C=NOC)cc2c1 (centres unmarked) [Compound No. 76, 2-(3-Ethynyl-quinolin-6-yloxy)-2-methoxy-N-(2-methoxyimino-1,1-dimethyl-ethyl)-acetamide]
≥ 60%: pest or weed control at 200 ppm (Plasmopara viticola) | inhibition of growth at 20 ppm (Pythium ultimum; 48 h) | inhibition of growth at 200 ppm (Fusarium culmorum) | pest or weed control at 200 ppm (Botrytis cinerea) | pest or weed control at 200 ppm [1] | pest or weed control at 200 ppm (Septoria nodorum) | pest or weed control at 200 ppm [2] | pest or weed control at 200 ppm (Phytophthora infestans) | inhibition of growth at 200 ppm (Septoria tritici; 72 h)

C#Cc1cnc2ccc(OC(CC)C(=O)NC(C)(C)C=NOCC=C)cc2c1 (centres unmarked) [Compound No. 149, N-(2-Allyloxyimino-1,1-dimethyl-ethyl)-2-(3-ethynyl-quinolin-6-yloxy)-butyramide]
≥ 60%: inhibition of growth at 20 ppm (Pythium ultimum; [3]) | inhibition of growth at 200 ppm (Fusarium culmorum) | pest or weed control at 200 ppm (Botrytis cinerea; [4]) | pest or weed control at 200 ppm [1, 5] | pest or weed control at 200 ppm [2, 6] | inhibition of growth at 200 ppm (Septoria tritici; [7])

CCC(Oc1cc(Cl)c2ncc(Br)cc2c1)C(=O)NC(C)(C)C=NOC (centres unmarked) [Compound No. 146, 2-(3-Bromo-8-chloro-quinolin-6-yloxy)-N-(2-methoxyimino-1,1-dimethyl-ethyl)-butyramide]
≥ 60%: pest or weed control at 200 ppm (Plasmopara viticola; [8]) | inhibition of growth at 20 ppm (Pythium ultimum; [3]) | inhibition of growth at 200 ppm (Fusarium culmorum) | pest or weed control at 200 ppm [1, 5] | pest or weed control at 200 ppm (Septoria nodorum; [6]) | pest or weed control at 200 ppm [2, 6] | pest or weed control at 200 ppm (Phytophthora infestans) | inhibition of growth at 200 ppm (Septoria tritici; [7])

CON=CC1(NC(=O)C(Oc2ccc3ncc(I)cc3c2)SC)CCC1 (centres unmarked) [Compound No. 79, 2-(3-Iodo-quinolin-6-yloxy)-N-[1-(methoxyimino-methyl)-cyclobutyl]-2-methylsulfanyl-acetamide]
≥ 60%: pest or weed control at 200 ppm (Plasmopara viticola; [8]) | inhibition of growth at 20 ppm (Pythium ultimum; [3]) | inhibition of growth at 200 ppm (Fusarium culmorum) | pest or weed control at 200 ppm [1, 5] | pest or weed control at 200 ppm (Septoria nodorum; [6]) | pest or weed control at 200 ppm [2, 6] | pest or weed control at 200 ppm (Phytophthora infestans) | inhibition of growth at 200 ppm (Septoria tritici; [7])

C#CCOCC(C)(C=NOC)NC(=O)C(Oc1ccc2ncc(C#C)cc2c1)SC (centres unmarked) [Compound No. 62, 2-(3-Ethynyl-quinolin-6-yloxy)-N-(2-methoxyimino-1-methyl-1-prop-2-ynyloxymethyl-ethyl)-2-methylsulfanyl-acetamide]
≥ 60%: pest or weed control at 200 ppm (Plasmopara viticola; [8]) | inhibition of growth at 20 ppm (Pythium ultimum; [3]) | pest or weed control at 200 ppm (Botrytis cinerea; [4]) | pest or weed control at 200 ppm [1, 5] | pest or weed control at 200 ppm (Septoria nodorum; [6]) | pest or weed control at 200 ppm [2, 6] | pest or weed control at 200 ppm (Phytophthora infestans) | inhibition of growth at 200 ppm (Septoria tritici; [7])

C#Cc1cnc2ccc(OC(SC)C(=O)NC(C)(C#N)C=NOC)cc2c1 (centres unmarked) [Compound No. 59, N-(1-Cyano-2-methoxyimino-1-methyl-ethyl)-2-(3-ethynyl-quinolin-6-yloxy)-2-methylsulfanyl-acetamide]
≥ 60%: pest or weed control at 200 ppm (Plasmopara viticola; [8]) | inhibition of growth at 200 ppm (Fusarium culmorum) | pest or weed control at 200 ppm (Botrytis cinerea; [4]) | pest or weed control at 200 ppm [1, 5] | pest or weed control at 200 ppm (Septoria nodorum; [6]) | pest or weed control at 200 ppm [2, 6] | pest or weed control at 200 ppm (Phytophthora infestans) | inhibition of growth at 200 ppm (Septoria tritici; [7])
